Laboratory results from patent US20150344485A1, “BICYCLIC PYRIMIDONE COMPOUNDS AS INHIBITORS OF LP-PLA2” (GLAXOSMITHKLINE INTELLECTUAL PROPERTY DEVELOPMENT LIMITED, priority 2013, published 2015).
Where two headings read alike, the source gives them in different places.

Assays:
[1] = target: T1, recombinant human Lp-PLA2 (Homo sapiens, UniProt Q13093); assay: Recombinant human Lp-PLA2 assay (rhLp-PLA2, PED6 assay); assay type: biochemical
T1 sequence (Q13093 22-441): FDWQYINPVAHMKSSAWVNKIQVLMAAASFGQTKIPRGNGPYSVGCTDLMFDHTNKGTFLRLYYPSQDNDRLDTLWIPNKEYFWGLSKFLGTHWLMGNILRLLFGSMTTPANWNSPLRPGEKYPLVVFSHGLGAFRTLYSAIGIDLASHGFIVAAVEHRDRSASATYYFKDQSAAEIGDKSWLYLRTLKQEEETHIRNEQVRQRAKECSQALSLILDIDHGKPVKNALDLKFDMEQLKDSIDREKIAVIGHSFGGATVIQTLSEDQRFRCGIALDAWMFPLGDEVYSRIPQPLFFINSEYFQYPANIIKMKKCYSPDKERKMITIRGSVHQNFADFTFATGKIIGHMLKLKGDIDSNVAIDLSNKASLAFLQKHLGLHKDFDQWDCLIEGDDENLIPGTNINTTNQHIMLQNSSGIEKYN
Text: (1) Recombinant Human Lp-PLA2 Assay (rhLp-PLA2) (Also Referred to as “PED6” Assay)
N-((6-(2,4-dinitrophenyl)amino)-hexanoyl)-2-(4,4-difluoro-5,7-dimethyl-4-bora-3a,4a-diaza-s-indacene-3-pentanoyl)-1-hexadecanoyl-sn-glycero-3-phosphoethanolamine, triethylammonium salt (PED6) is a commercially available fluorescently-labeled phospholipid, which is commercially available from Invitrogene and Molecular Probes. There is a quenching para-nitro phenyl (PNP) group in the sn3 position and a Bodipy fluorescein (FL) group in the sn2 position. Upon cleavage with Lp-PLA2, the Bodipy FL group is liberated and then may result in an increase in fluorescence. Inhibitors of Lp-PLA2 therefore prevent this cleavage and no fluorescent increase is observed.
The PED6 assay was run as an unquenched 10 μL assay. The source plate containing the compounds to be tested was prepared by making 1:3 (by volume) serial dilution of the compounds within DMSO on 384-well microplate. Then, 0.01 μL of the compounds on compound source plate were transferred into 384 well Greiner 784076 (black) plates using ECHO liquid dispenser. 5 μL of recombinant human Lp-PLA2 enzyme (4 nM (or 110 pM) rhLp-PLA2 in assay buffer of 50 mM HEPES, pH 7.4, 150 mM NaCl, 1 mM CHAPS) was added to each well of the plate. Plates were centrifuged for 10 sec at 500 rpm. After 30 minutes preincubation, 5 μL of substrate (4 μM (or 5 μM) PED6 [from 5 mM DMSO stock] in assay buffer of 50 mM HEPES, pH 7.4, 150 mM NaCl, 1 mM CHAPS) was added to 384 well Greiner 784076 (black) plates. Plates were centrifuged for 10 sec at 500 rpm. The plate was covered to protect it from light and incubated for 20 min at room temperature. The plates were read for fluorescence intensity at ex: 480/em: 540 using ViewLux microplate imager for Envision spectrofluroimeters. pIC50 data, curve and QC analysis was conducted by using XL fit module in Excel.

Lp-PLA2 in human plasma = target: T2, Lp-PLA2 in human plasma (Homo sapiens, UniProt Q13093); assay: Lp-PLA2 human plasma assay (Thio-PAF assay); assay type: biochemical; settings: pooled human plasma; read-out: pIC50 values in the thio-PAF assay (converted)
T2 construct: from tissue; host or cells: pooled human plasma
T2 sequence (Q13093 22-441): T1 sequence (Q13093 22-441)
Text: The human plasma assay utilizes a thioester analog of PAF (phosphatidylcholine), where hydrolysis yields to the formation of a phospholipid containing a free thiol group. The amount of thiol is quantitated continuously by reacting with CPM (7-diethylamino-3-(4′-maleimidylphenyl)-4-methylcoumarin), a maleimide which increases in fluoresence after Michael addition of thiols. This assay may detect the activity of Lp-PLA2 in human plasma, as determined by specific inhibition by Lp-PLA2 inhibitors.
The thio-PAF assay was run as a quenched 15 μL assay. Compounds source plate was prepared by making 1:3 (by volume) serial dilution of the compounds into pure DMSO on 384-well microplate. 0.01 μL of compounds on compound source plate were transferred to 384 well Greiner 784076 (black) low-volume plates by ECHO liquid dispenser. 8 μL pooled human plasma, which was previously aliquoted and frozen, was added. Plates were centrifuged for 10 sec at 500 rpm. After 30 minutes preincubation, 2 μL of substrate solution comprising 2.5 mM 2-thio-PAF [from ethanol stock], 32 μM CPM [from a DMSO stock] and 3.2 mM NEM (N-ethylmaleimide) [made fresh daily in DMSO] in assay buffer of 50 mM HEPES, pH 7.4, 150 mM NaCl, 1 mM CHAPS was added to 384 well Greiner 784076 (black) low-volume plates by BRAVO liquid handling station. After 2 mins, reaction was quenched with 5 μL of 5% aqueous trifluoroacetic acid (TFA). Plates were covered to protect from light and incubated for 40 min at room temperature. Plates were read at ex: 380/em: 485 using-Envision microplate reader. pIC50 data, curve and QC analysis was conducted by using XLFit module in Excel.

[2] = read-out: pIC50 values in the recombinant human Lp-PLA2 assay (converted)
[3] = read-out: rhLp-PLA2 (PED6 assay) (pIC50) (converted)

Row | Compound | IC50 [1, 2] [nM] | IC50 (Lp-PLA2 in human plasma) [nM] | IC50 [1, 3] [nM]
1 | C[C@@H]1CCn2c(cc(OCc3ccc(Oc4cccc(F)c4)c(C#N)c3)nc2=O)N1C [E102, (R)-5-(((1,2-dimethyl-6-oxo-2,3,4,6-tetrahydro-1H-pyrimido[1,6-a]pyrimidin-8-yl)oxy)methyl)-2-(3-fluorophenoxy)benzonitrile] | ≤ 1 | ≤ 10 | –
2 | CN1c2cc(OCc3ccc(Oc4cccc(F)c4)c(C#N)c3)nc(=O)n2CCC1(C)C [E117, 2-(3-fluorophenoxy)-5-(((1,2,2-trimethyl-6-oxo-2,3,4,6-tetrahydro-1H-pyrimido[1,6-a]pyrimidin-8-yl)oxy)methyl)benzonitrile] | ≤ 1 | ≤ 100 | –
3 | C[C@H]1CCn2c(cc(OCc3ccc(Oc4ccc(C(F)(F)F)c(F)c4)cc3)nc2=O)N1C [E105, (S)-8-((4-(3-fluoro-4-(trifluoromethyl)phenoxy)benzyl)oxy)-1,2-dimethyl-3,4-dihydro-1H-pyrimido[1,6-a]pyrimidin-6(2H)-one] | ≤ 1 | ≤ 100 | –
4 | C[C@@H]1CCn2c(cc(OCc3ccc(Oc4ccc(C(F)(F)F)cc4)c(C#N)c3)nc2=O)N1C [E78] | ≤ 1 | ≤ 100 | –
5 | C[C@@H]1CCn2c(cc(OCc3ccc(Oc4ccc(F)c(F)c4)c(F)c3)nc2=O)N1C [E80, (R)-8-((4-(3,4-difluorophenoxy)-3-fluorobenzyl)oxy)-1,2-dimethyl-3,4-dihydro-1H-pyrimido[1,6-a]pyrimidin-6(2H)-one] | ≤ 1 | ≤ 100 | –
6 | [2H]C([2H])(Oc1cc2n(c(=O)n1)CCC(C)(C)N2C)c1cccc(F)c1F [E73, 8-((2,3-difluorophenyl)dideuteromethoxy)-1,2,2-trimethyl-3,4-dihydro-1H-pyrimido[1,6-a]pyrimidin-6(2H)-one] | ≤ 1 | ≤ 100 | –
7 | CN1c2cc(OCc3ccc(Oc4ccc(F)c(F)c4)c(C#N)c3)nc(=O)n2CCC1(C)C [E111, 2-(3,4-difluorophenoxy)-5-(((1,2,2-trimethyl-6-oxo-2,3,4,6-tetrahydro-1H-pyrimido[1,6-a]pyrimidin-8-yl)oxy)methyl)benzonitrile] | ≤ 1 | ≤ 10 | –
8 | C[C@H]1CCn2c(cc(OCc3cc(F)c(Oc4ccc(F)c(F)c4)c(F)c3)nc2=O)N1C [E90, (S)-8-((4-(3,4-difluorophenoxy)-3,5-difluorobenzyl)oxy)-1,2-dimethyl-3,4-dihydro-1H-pyrimido[1,6-a]pyrimidin-6(2H)-one] | ≤ 1 | ≤ 10 | –
9 | CC1CCn2c(cc(OCc3ccc(Oc4ccc(F)c(F)c4)c(F)c3)nc2=O)N1 (centres unmarked) [E3, 8-((4-(3,4-difluorophenoxy)-3-fluorobenzyl)oxy)-2-methyl-3,4-dihydro-1H-pyrimido[1,6-a]pyrimidin-6(2H)-one] | ≤ 1 | ≤ 100 | –
10 | CN1c2cc(OCc3ccc(Oc4ccnc(C(F)(F)F)c4)c(F)c3)nc(=O)n2CCC1(C)C [E89, 8-((3-fluoro-4-((2-(trifluoromethyl)pyridin-4-yl)oxy)benzyl)oxy)-1,2,2-trimethyl-3,4-dihydro-1H-pyrimido[1,6-a]pyrimidin-6(2H)-one] | ≤ 1 | ≤ 10 | –
11 | CN1c2cc(OCc3ccc(Oc4ccc(F)c(C(F)(F)F)c4)c(C#N)c3)nc(=O)n2CCC1(C)C [E116, 2-(4-fluoro-3-(trifluoromethyl)phenoxy)-5-(((1,2,2-trimethyl-6-oxo-2,3,4,6-tetrahydro-1H-pyrimido[1,6-a]pyrimidin-8-yl)oxy)methyl)benzonitrile] | ≤ 1 | ≤ 10 | –
12 | C[C@@H]1CCn2c(cc(OCc3cc(F)c(Oc4cnc(C(F)(F)F)nc4)c(F)c3)nc2=O)N1C [E97, (R)-8-((3,5-difluoro-4-((2-(trifluoromethyl)pyrimidin-5-yl)oxy)benzyl)oxy)-1,2-dimethyl-3,4-dihydro-1H-pyrimido[1,6-a]pyrimidin-6(2H)-one] | ≤ 1 | ≤ 10 | 0.1
13 | C[C@H]1CCn2c(cc(OCc3ccc(Oc4cccc(C(F)(F)F)c4)c(F)c3)nc2=O)N1C [E91, (S)-8-((3-fluoro-4-(3-(trifluoromethyl)phenoxy)benzyl)oxy)-1,2-dimethyl-3,4-dihydro-1H-pyrimido[1,6-a]pyrimidin-6(2H)-one] | ≤ 1 | ≤ 10 | –
14 | C[C@@H]1CCn2c(cc(OCc3cc(F)c(F)c(F)c3)nc2=O)N1 [E29, (R)-2-methyl-8-((3,4,5-trifluorobenzyl)oxy)-3,4-dihydro-1H-pyrimido[1,6-a]pyrimidin-6(2H)-one] | – | ≤ 100 | 1.26

The remaining lines, values ahead:

Row | IC50 [1, 2] [nM] | IC50 (Lp-PLA2 in human plasma) [nM] | IC50 [1, 3] [nM] | Compound
15 | ≤ 1 | ≤ 100 | – | CC(C)N1c2cc(OCc3cc(F)c(F)c(F)c3)nc(=O)n2CC[C@@H]1C [E140, (S)-1-isopropyl-2-methyl-8-((3,4,5-trifluorobenzyl)oxy)-3,4-dihydro-1H-pyrimido[1,6-a]pyrimidin-6(2H)-one]
16 | ≤ 1 | ≤ 10 | – | C[C@H]1CCn2c(cc(OCc3ccc(Oc4ccnc(C(F)(F)F)c4)c(F)c3)nc2=O)N1C [E151, (S)-8-((3-fluoro-4-((2-(trifluoromethyl)pyridin-4-yl)oxy)benzyl)oxy)-1,2-dimethyl-3,4-dihydro-1H-pyrimido[1,6-a]pyrimidin-6(2H)-one]
17 | ≤ 1 | ≤ 10 | 0.0158 | C[C@H]1CCn2c(cc(OCc3cc(F)c(Oc4ccnc(C(F)(F)F)c4)c(F)c3)nc2=O)N1C [E146, (S)-8-((3,5-difluoro-4-((2-(trifluoromethyl)pyridin-4-yl)oxy)benzyl)oxy)-1,2-dimethyl-3,4-dihydro-1H-pyrimido[1,6-a]pyrimidin-6(2H)-one]
18 | ≤ 1 | ≤ 100 | – | C[C@@H]1CCn2c(cc(OCc3ccc(Oc4cccc(C(F)(F)F)c4)c(F)c3)nc2=O)N1C [E120, (R)-8-((3-fluoro-4-(3-(trifluoromethyl)phenoxy)benzyl)oxy)-1,2-dimethyl-3,4-dihydro-1H-pyrimido[1,6-a]pyrimidin-6(2H)-one]
19 | ≤ 1 | ≤ 10 | – | CN1c2cc(OCc3cc(F)c(Oc4ccnc(C(F)(F)F)c4)c(F)c3)nc(=O)n2CCC1(C)C [E153]
20 | ≤ 1 | ≤ 10 | – | CN1c2cc(OCc3ccc(F)cc3)nc(=O)n2CCC1(C)C [E135, 8-((4-fluorobenzyl)oxy)-1,2,2-trimethyl-3,4-dihydro-1H-pyrimido[1,6-a]pyrimidin-6(2H)-one]
21 | ≤ 1 | ≤ 10 | – | C[C@@H]1CCn2c(cc(OCc3ccc(Oc4cncc(C(F)(F)F)c4)c(F)c3)nc2=O)N1C [E149, (R)-8-((3-fluoro-4-((5-(trifluoromethyl)pyridin-3-yl)oxy)benzyl)oxy)-1,2-dimethyl-3,4-dihydro-1H-pyrimido[1,6-a]pyrimidin-6(2H)-one]
